For this assay, the target named is T1, MsrA/B.
T1 construct: recombinant, msr gene of strain 1291 in pET15b (NdeI/XhoI primers), His-tagged, E. coli BL21 Star (DE3)pLysS, TALON purified; full protein 522 aa; amine-coupled to SPR chip
Put plainly: SPR, Biacore T200, single cycle kinetics, MsrA/B immobilized by amine coupling on CM5 chip. The format is binding, Neisseria gonorrhoeae. Conditions: free Met(O) 0.16-100 nM; no serum; substrate; sulfoxide epimer and D/L form not told. The text has this:
SPR, Biacore T200, single cycle kinetics, MsrA/B immobilized by amine coupling on CM5 chip on MsrA/B | MsrA/B bound to Met(O) with a high affinity, with a KD

Usually Kd stands for the concentration at which binding is half-saturated. `C[S+]([O-])CC[C@H](N)C(=O)O` (stereo partly shown) [Met(O)] gave a Kd of 15.4 ± 3.7 nM.

The record behind these values is paper PMC6372556, “The Neisseria gonorrhoeae Methionine Sulfoxide Reductase (MsrA/B) Is a Surface Exposed, Immunogenic, Vaccine Candidate” (Frontiers in Immunology, 2019).
